The text below walks through data of patent US6800637B2, “Antidepressant indolealkyl derivatives of heterocycle-fused benzodioxan methylamines” (Wyeth, priority 2002, dated 2004).

The structures appear in SMILES notation. Structures can show the parent of a compound that is named as a salt.

Regarding `Cc1ccc2c3c(ccc2n1)OCC(CNCCCc1c[nH]c2ccc(C#N)cc12)O3` (stereo not drawn) (as salt: hydrochloride) [Example 29, 3-{3-[(8-Methyl-2,3-dihydro-[1,4]dioxino[2,3-f]quinolin-2-ylmethyl)-amino]-propyl}-1H-indole-5-carbonitrile], the melting point lay in the range of 170 to 174 °C.

For the compound `Cc1ccc2c3c(ccc2n1)OCC(CNCCCCc1coc2ccccc12)O3` (stereo not drawn) (as salt: fumarate) [Example 28, N-[4-(1-Benzofuran-3-yl)butyl]-N-(8-methyl-2,3-dihydro-[1,4]dioxino[2,3-f]quinolin-2-ylmethyl)amine], the melting point was 127 to 130 °C.

`Cc1ccc2c3c(ccc2n1)OC[C@H](CNCCc1coc2ccccc12)O3` (as salt: fumarate) [Example 17]: the melting point is 210 to 214 °C.

On to `Cc1ccc2c3c(ccc2n1)OCC(CNCCCCc1c[nH]c2ccccc12)O3` (stereo not drawn) (as salt: fumarate) [Example 9, N-[4-(1H-indol-3-yl)butyl]-N-(8-methyl-2,3-dihydro-[1,4]dioxino[2,3-f]quinolin-2-ylmethyl)amine], for which the melting point was in the range of 208 to 210 °C.

In the case of `CCCN(CCCc1c[nH]c2ccc(F)cc12)CC1COc2ccc3nc(C)ccc3c2O1` (stereo not drawn) (as salt: hydrochloride) [Example 45, [3-(5-Fluoro-1H-indol-3-yl)-propyl]-(8-methyl-2,3-dihydro-[1,4]dioxino[2,3-f]quinolin-2-ylmethyl)-propyl-amine], the melting point lay within 164 to 170 °C.

Regarding `Cc1ccc2c3c(ccc2n1)OCC(CNCCCc1c[nH]c2c(F)cccc12)O3` (stereo not drawn) (as salt: fumarate) [Example 8, N-[3-(7-Fluoro-1H-indol-3-yl)propyl]-N-(8-methyl-2,3-dihydro-[1,4]dioxino[2,3-f]quinolin-2-ylmethyl)amine], the melting point fell in the range of 142 to 150 °C.

As for `Cc1ccc2c3c(ccc2n1)OCC(CNCCCn1ccc2ccc(F)cc21)O3` (stereo not drawn) (as salt: hydrochloride) [Example 33, [3-(6-Fluoro-indol-1-yl)-propyl]-(8-methyl-2,3-dihydro-[1,4]dioxino[2,3-f]quinolin-2-ylmethyl)amine], the melting point was in the range of 154 to 156 °C.

`Cc1nc2ccc3c(c2o1)O[C@@H](CNCCCc1c[nH]c2ccc(F)cc12)CO3` (as salt: hydrochloride) [Example 23, N-[3-(5-Fluoro-1H-indol-3-yl)propyl]-N-(2-methyl-7,8-dihydro-[1,4]dioxino[2,3-g][1,3]benzoxazol-8-ylmethyl)amine]: the melting point lay in the range of 91 to 93 °C.

As for `Cc1nc2ccc3c(c2o1)O[C@@H](CN(C)CCCc1c[nH]c2ccc(C#N)cc12)CO3` (as salt: hydrochloride) [Example 31, 3-{3-[M thyl-(2-methyl-7,8-dihydro-[1,4]dioxino[2,3[-g][1,3]benzoxazol-8-ylmethyl)-amino]-propyl)}-1H-indole-5-carbonitrile], the melting point was 140 °C (dec.).

`Cc1ccc2c3c(ccc2n1)OCC(CNCCCc1cn(C)c2ccc(F)cc12)O3` (stereo not drawn) (as salt: fumarate) [Example 12, N-[3-(5-Fluoro-1-methyl-1H-indol-3-yl)propyl]-N-(8-methyl-2,3-dihydro-[1,4]dioxino[2,3-f]quinolin-2-ylmethyl)amine] showed a melting point of 156 to 161 °C.

In the case of `Cc1ccc2c3c(ccc2n1)OCC(CN(C)CCCc1c[nH]c2ccc(F)cc12)O3` (stereo not drawn) (as salt: fumarate) [Example 7, N-[3-(5-Fluoro-1H-indol-3-yl)propyl]-N-methyl-N-(8-methyl-2,3-dihydro-[1,4]dioxino[2,3-f]quinolin-2-ylmethyl)amine], the melting point is 104 to 120 °C.

`Cc1ccc2c3c(ccc2n1)OCC(CNCCc1csc2ccccc12)O3` (stereo not drawn) (as salt: fumarate) [Example 21, N-[2-(1-Benzothien-3-yl)ethyl]-N-(8-methyl-2,3-dihydro-[1,4]dioxino[2,3-f]quinolin-2-ylmethyl)amine] gave a melting point of 124 to 127 °C.

`Cc1ccc2c3c(ccc2n1)OCC(CNCCCc1c[nH]c2c(F)cc(F)cc12)O3` (stereo not drawn) (as salt: fumarate) [Example 13, N-[3-(5,7-Difluoro-1H-indol-3-yl)propyl]-N-(8-methyl-2,3-dihydro-[1,4]dioxino[2,3-f]quinolin-2-ylmethyl)amine] showed a melting point of 188 to 195 °C.

In turn, `Cc1ccc2c3c(ccc2n1)OCC(CNCCCCc1c[nH]c2ccc(F)cc12)O3` (stereo not drawn) (as salt: fumarate) [Example 10, N-[4-(5-Fluoro-1H-indol-3-yl)butyl]-N-(8-methyl-2,3-dihydro-[1,4]dioxino[2,3-f]quinolin-2-ylmethyl)amine] came in with a melting point of 138 to 154 °C.

Consider `Cc1ccc2c3c(ccc2n1)OC[C@H](CNCCCc1csc2ccccc12)O3` (as salt: fumarate) [Example 20], for which the melting point was 185 to 186 °C.

For the compound `CCN(CCCCc1coc2ccccc12)C[C@H]1COc2ccc3nc(C)ccc3c2O1` (as salt: fumarate) [Example 52, N-[4-(1-Benzofuran-3-yl)butyl]-N-ethyl-N-{[(2S)-8-methyl-2,3-dihydro[1,4]dioxino[2,3-f]quinolin-2-yl]methyl}amine], the melting point is 87 to 92 °C.

`Cc1nc2ccc3c(c2o1)O[C@@H](CNCCCc1c[nH]c2ccc(C#N)cc12)CO3` (as salt: hydrochloride) [Example 30, 3-{3-[(2-Methyl-7,8-dihydro-[1,4]dioxino[2,3-g][1,3]benzoxazol-8-ylmethyl)amino]-propyl}-1H-indole-5-carbanitrile] showed a melting point of 148 to 151 °C.

For the compound `Cc1ccc2c3c(ccc2n1)OC[C@H](CNCCCc1coc2ccccc12)O3` (as salt: fumarate) [Example 18], the melting point lay within 165 to 170 °C.

In the case of `Cc1ccc2c3c(ccc2n1)OCC(CN(C)CCCc1cn(C)c2c(F)cc(F)cc12)O3` (stereo not drawn) (as salt: hydrochloride) [Example 27, N-[3-(5,7-Difluoro-1-methyl-1H-indol-3-yl)propyl]-N-methyl-N-(8-methyl-2,3-dihydro-[1,4]dioxino[2,3-f]quinolin-2-ylmethyl)amine], the melting point was in the range of 190 to 204 °C.

As for `Cc1ccc2c3c(ccc2n1)OC[C@H](CNCCCCc1csc2ccc(Cl)cc12)O3` (as salt: fumarate) [Example 49], the melting point lay within 140 to 144 °C.

Compound `Cc1ccc2c3c(ccc2n1)OCC(CNCCCCc1cn(C)c2ccc(F)cc12)O3` (stereo not drawn) (as salt: hydrochloride) [Example 35, [4-(5-Fluoro-1-methyl-1H-indol-3-yl)-butyl]-(8-methyl-2,3-dihydro-[1,4]dioxino[2,3-f]quinolin-2-ylmethyl)-amine] showed a melting point of 229 to 235 °C.

Usually melting point stands for the temperature, or range, at which the solid turns liquid.
